Data on three substances can be found in patent US9731013B2 (UNIVERSITY OF FLORIDA RESEARCH FOUNDATION, INC., priority 2008, dated 2017).

Data set [1] can be described thus: Radiofrequency (RF) heating of samples dissolved or suspended in water. The data set is classed as physicochemical. The settings on record: RF 13.56 MHz, 500 W, 250 μL sample in water; for temperature rise (in words): up to five minutes. The procedure: FIG. 1 is a plot of the temperature rise of samples comprising functionalized fullerenes according to embodiments of the invention that are dissolved or suspended in water during irradiation with RF at 13.56 MHz and 500 W RF power over a period of five minutes.
FIG. 2 is a bar graph of the temperature rise of samples comprising functionalized fullerenes according to embodiments of the invention that are dissolved or suspended in water after irradiation with RF at 13.56 MHz and 500 W RF power for 30 seconds (left bars) and 60 seconds (right bars).
Heating of a volume of water by irradiation of fullerene comprising compounds was carried out using a radiofrequency (RF) heating system (Therm Med, LLC, Erie, Pa.) operating at 13.56 MHz and 500 W RF power. A volume of 250 μL of sample dissolved or suspended in water was pipetted into a cylindrical quartz cuvette for RF exposure. The cuvette was placed on a thin horizontal Teflon sample holder positioned at a depth of 7.6 cm from RF generator.

The nature of data set [2]: Water solubility observation of samples. The data set is classed as physicochemical.

For Gadofullerenes (Gd@C82) [GdF], the “temperature rise in 5 minutes” value in data set [1] (5 minutes) came out at 10 °C. The “water solubility (in words)” value in data set [2] was “not water soluble”.
For the substance Polyhydroxy fullerenes [PBU], the “temperature rise (in words)” value in data set [1] is listed as “Temperature rise was observed”.
Turning to Pristine C60 [FN, reference compound], the “temperature rise (in words)” value in data set [1] is “did not show a temperature rise”. The “water solubility (in words)” value in data set [2] is “not water soluble”.
